Source: patent US20260125382A1, “COMPOUNDS FOR INHIBITING OR DEGRADING CDK2 AND/OR CDK9 AND MEDICINAL USE THEREOF” (KOREA RESEARCH INSTITUTE OF CHEMICAL TECHNOLOGY, priority 2022, published 2026)

Legend:
CDK9 = biological target: T1, CDK9 (Homo sapiens, UniProt P50750); test: CDK protein degradation activity (Western blotting), CDK9; assay type: cell-based; conditions: MDA-MB-231 cells, 16 hours, Western blot
T1 construct: endogenous in cells; host or cells: MDA-MB-231
Procedure: (§1) In order to evaluate the CDK protein degradation activity of the compounds according to the present invention, the following experiment was conducted.
(§2) MDA-MB-231 cells were seeded at 5×10^5 cells per well in a 6-well plate. The next day, the compounds were treated in each well to achieve final concentrations of 100 nM, 1 μM, and 10 μM. For the control group, an equal amount of DMSO was treated in the well as the compound. After 16 hours of treatment, cells were collected, and cell lysates were prepared using Triton X-100 lysis buffer (50 mM HEPES, pH 7.5, 40 mM NaCl, 1% Triton X-100, 1 mM EDTA, 1 mM EGTA, 10 mM pyrophosphate, 10 mM β-glycerophosphate, 50 mM NaF, 1 mM NaVO4, protease inhibitor). Cell lysates were quantified and separated by size using sodium dodecyl sulfate-polyacrylamide gel electrophoresis (SDS-PAGE). Western blotting was then performed using antibodies that recognize CDK2, CDK9, and tubulin, respectively. The results obtained by Western blotting were quantitatively analyzed using the ImageJ program, and representative images according to the experimental results are shown in FIG. 1.

CDK2 = biological target: T2, CDK2 (Homo sapiens, UniProt P24941); test: CDK protein degradation activity (Western blotting), CDK2; assay type: cell-based; conditions: MDA-MB-231 cells, 16 hours, Western blot
T2 construct: endogenous in cells; host or cells: MDA-MB-231
Procedure: as §1, §2

T1 sequence (P50750 whole entry): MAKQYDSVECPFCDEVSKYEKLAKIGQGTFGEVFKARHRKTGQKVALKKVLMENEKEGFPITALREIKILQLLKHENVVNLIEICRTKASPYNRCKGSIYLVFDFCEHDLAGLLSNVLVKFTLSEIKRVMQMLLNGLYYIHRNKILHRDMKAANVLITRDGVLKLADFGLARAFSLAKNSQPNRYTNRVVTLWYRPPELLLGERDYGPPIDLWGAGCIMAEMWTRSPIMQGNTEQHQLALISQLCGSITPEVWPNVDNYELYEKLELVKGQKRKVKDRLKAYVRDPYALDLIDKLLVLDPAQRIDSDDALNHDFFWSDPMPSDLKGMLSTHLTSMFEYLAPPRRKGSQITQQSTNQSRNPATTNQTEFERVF

SMILES | Enzyme degradation CDK9 (% remaining) @ 0.1 μM (CDK9) | Enzyme degradation CDK9 (% remaining) @ 1 μM (CDK9) | Enzyme degradation CDK9 (% remaining) @ 10 μM (CDK9) | Enzyme degradation CDK2 (% remaining) @ 0.1 μM (CDK2) | Enzyme degradation CDK2 (% remaining) @ 1 μM (CDK2) | Enzyme degradation CDK2 (% remaining) @ 10 μM (CDK2)
O=C1CC[C@H](n2nnc3ccc(N4CCC5(CC4)CC(N4CCN(c6ccc(Nc7ncnc8c7ncn8[C@H]7C[C@@H](NC(=O)Cc8ccccc8)C7)cc6)CC4)C5)cc3c2=O)C(=O)N1 [Compound 314, N-((1s,3s)-3-(6-((4-(4-(7-(3-(2,6-dioxopiperidin-3-yl)-4-oxo-3,4-dihydrobenzo[d][1,2,3]triazin-6-yl)-7-azaspiro[3.5]nonan-2-yl)piperazin-1-yl)phenyl)amino)-9H-purin-9-yl)cyclobutyl)-2-phenylacetamide] | 10% | 0% | 0% | 10/10/10% | 10/10/10% | 10/10/10%
O=C1CC[C@H](N2C(=O)c3cc(F)c(N4CCC(C(=O)N5CCC(CN6CCN(c7ccc(Nc8ncnc9c8ncn9C8CC(NC(=O)c9cccc(Cl)n9)C8)cc7)CC6)CC5)CC4)cc3C2=O)C(=O)N1 (stereo partly drawn) [Compound 453, 6-chloro-N-((1s,3s)-3-(6-((4-(4-((1-(1-(2-(2,6-dioxopiperidin-3-yl)-6-fluoro-1,3-dioxoisoindolin-5-yl)piperidin-4-carbonyl)piperidin-4-yl)methyl)piperazin-1-yl)phenyl)amino)-9H-purin-9-yl)cyclobutyl)picolinamide] | 0/0/0% | 0/0/0% | 0/0/0% | 20% | 20% | 30%
N#Cc1cccc(C(=O)N[C@H]2C[C@@H](n3cnc4c(Nc5ccc(N6CCN(CC7CCN(c8ccc9nnn([C@H]%10CCC(=O)NC%10=O)c(=O)c9c8)CC7)CC6)cc5)ncnc43)C2)n1 (racemic) [Compound 418, 6-cyano-N-((1s,3s)-3-(6-((4-(4-((1-(3-(2,6-dioxopiperidin-3-yl)-4-oxo-3,4-dihydrobenzo[d][1,2,3]triazin-6-yl)piperidin-4-yl)methyl)piperazin-1-yl)phenyl)amino)-9H-purin-9-yl)cyclobutyl)picolinamide] | 0/0/0% | 0/0/0% | 0/0/0% | 10/10/10% | 10/10/10% | 10/10/10%
Cc1cccc(C(=O)NC2CC(n3cnc4c(Nc5ccc(N6CCN(C7CC8(CCN(c9ccc%10c(c9)C(=O)N([C@H]9CCC(=O)NC9=O)C%10=O)CC8)C7)CC6)cc5)ncnc43)C2)n1 (stereo partly drawn) [Compound 384, N-((1s,3s)-3-(6-((4-(4-(7-(2-(2,6-dioxopiperidin-3-yl)-1,3-dioxoisoindolin-5-yl)-7-azaspiro[3.5]nonan-2-yl)piperazin-1-yl)phenyl)amino)-9H-purin-9-yl)cyclobutyl)-6-methylpicolinamide] | 0/0/0% | 0/0/0% | 0/0/0% | 20/20/20% | 20/20/20% | 20/20/20%
Cc1cccc(C(=O)N[C@H]2C[C@@H](n3cnc4c(NCc5ccc(OCC6CCN(C(=O)CNc7cccc8c7C(=O)N([C@H]7CCC(=O)NC7=O)C8=O)CC6)cc5)ncnc43)C2)n1 [Compound 109, N-((1s,3s)-3-(6-((4-((1-((2-(2,6-dioxopiperidin-3-yl)-1,3-dioxoisoindolin-4-yl)glycyl)piperidin-4-yl)methoxy)benzyl)amino)-9H-purin-9-yl)cyclobutyl)-6-methylpicolinamide] | 0/0/0% | 0/0/0% | 0/0/0% | 40% | 60% | 70%
O=C1CC[C@H](N2C(=O)c3cc(F)c(N4CCC(C(=O)N5CCC(CN6CCN(c7ccc(Nc8ncnc9c8ncn9[C@H]8C[C@@H](NC(=O)c9cccc(C(F)(F)F)n9)C8)cc7)CC6)CC5)CC4)cc3C2=O)C(=O)N1 [Compound 471, N-((1s,3s)-3-(6-((4-(4-((1-(1-(2-(2,6-dioxopiperidin-3-yl)-6-fluoro-1,3-dioxoisoindolin-5-yl)piperidin-4-carbonyl)piperidin-4-yl)methyl)piperazin-1-yl)phenyl)amino)-9H-purin-9-yl)cyclobutyl)-6-(trifluoromethyl)picolinamide] | 0/0/0% | 0/0/0% | 0/0/0% | 50% | 40% | 40%
O=C1CC[C@H](N2C(=O)c3ccc(N4CC(C(=O)N5CCC(CN6CCN(c7ccc(Nc8ncnc9c8ncn9C8CC(NC(=O)c9cccc(Cl)n9)C8)cc7)CC6)CC5)C4)cc3C2=O)C(=O)N1 (stereo partly drawn) [Compound 451, 6-chloro-N-((1s,3s)-3-(6-((4-(4-((1-(1-(2-(2,6-dioxopiperidin-3-yl)-1,3-dioxoisoindolin-5-yl)azetidin-3-carbonyl)piperidin-4-yl)methyl)piperazin-1-yl)phenyl)amino)-9H-purin-9-yl)cyclobutyl)picolinamide] | 0/0/0% | 0/0/0% | 0/0/0% | 50% | 30% | 30%
O=C1CC[C@@H](c2ccc(OCC(=O)N3CCC(CC(=O)N4CCN(c5ccc(Nc6ncnc7c6ncn7C6CC(NC(=O)Cc7ccccc7)C6)cc5)CC4)CC3)cc2)C(=O)N1 (stereo partly drawn) [Compound 203, N-((1s,3s)-3-(6-((4-(4-(2-(1-(2-(4-(2,6-dioxopiperidin-3-yl)phenoxy)acetyl)piperidin-4-yl)acetyl)piperazin-1-yl)phenyl)amino)-9H-purin-9-yl)cyclobutyl)-2-phenylacetamide] | 20% | 0% | 0% | 70% | 40% | 70%
O=C1CC[C@@H](c2ccc(OCC(=O)N3CCC4(CC3)CC(N3CCN(c5ccc(Nc6ncnc7c6ncn7[C@H]6C[C@@H](NC(=O)c7cccc(C(F)(F)F)n7)C6)cc5)CC3)C4)cc2)C(=O)N1 [Compound 439, N-((1s,3s)-3-(6-((4-(4-(7-(2-(4-(2,6-dioxopiperidin-3-yl)phenoxy)acetyl)-7-azaspiro[3.5]nonan-2-yl)piperazin-1-yl)phenyl)amino)-9H-purin-9-yl)cyclobutyl)-6-(trifluoromethyl)picolinamide] | 10/10/10% | 10/10/10% | 10/10/10% | 50/50/50% | 50/50/50% | 50/50/50%
